According to the supplement of paper PMC10307832:

Tests used:
Experiment in all cases: relative viability (nuclei count vs DMSO), 5 days (fraction); higher = more cells survive
[1] = compound: COc1cc2nc(N3CCCN(C)CC3)nc(NC3CCN(Cc4ccccc4)CC3)c2cc1OC + CC1(C)CCC(c2ccc(Cl)cc2)=C(CN2CCN(c3ccc(C(=O)NS(=O)(=O)c4ccc(N[C@H](CCN5CCOCC5)CSc5ccccc5)c(S(=O)(=O)C(F)(F)F)c4)cc3)CC2)C1 [Navitoclax] (partner 0.5 µM)
Outline: (§1)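 Values are medians from duplicate plates. Each reflects relative viability, defined as the nuclei count of treated wells over that of vehicle wells. Lung cancer cell lines in 1536-well plates were pin-tool dosed one day after seeding with one drug alone or with a fixed anchor-drug dose plus five library-drug doses (not always all listed) in √10 steps, then fixed, stained and imaged at 4× after 5 days.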

[2] = compound: COc1cc2nc(N3CCCN(C)CC3)nc(NC3CCN(Cc4ccccc4)CC3)c2cc1OC + CS(=O)(=O)CCNCc1ccc(-c2ccc3ncnc(Nc4ccc(OCc5cccc(F)c5)c(Cl)c4)c3c2)o1 [Lapatinib] (partner 2 µM)
Outline: as §1

AZD6482 + Luminespib = compound: Cc1cc([C@@H](C)Nc2ccccc2C(=O)O)c2nc(N3CCOCC3)cc(=O)n2c1 [AZD6482] + CCNC(=O)c1noc(-c2cc(C(C)C)c(O)cc2O)c1-c1ccc(CN2CCOCC2)cc1 [Luminespib] (partner 0.01 µM)
Outline: as §1

AZD6482 + Dasatinib = compound: Cc1cc([C@@H](C)Nc2ccccc2C(=O)O)c2nc(N3CCOCC3)cc(=O)n2c1 [AZD6482] + Cc1nc(Nc2ncc(C(=O)Nc3c(C)cccc3Cl)s2)cc(N2CCN(CCO)CC2)n1 [Dasatinib] (partner 0.075 µM)
Outline: as §1

Cell Line | relative viability ([1]; first compound 0.2 µM) | relative viability ([1]; first compound 0.6325 µM) | relative viability ([1]; first compound 2 µM) | relative viability ([1]; first compound 6.325 µM) | relative viability ([2]; first compound 0.2 µM) | relative viability ([2]; first compound 0.6325 µM) | relative viability ([2]; first compound 2 µM) | relative viability ([2]; first compound 6.325 µM) | relative viability (AZD6482 + Luminespib; first compound 0.08 µM) | relative viability (AZD6482 + Luminespib; first compound 0.253 µM) | relative viability (AZD6482 + Luminespib; first compound 0.8 µM) | relative viability (AZD6482 + Luminespib; first compound 2.53 µM) | relative viability (AZD6482 + Luminespib; first compound 8 µM) | relative viability (AZD6482 + Dasatinib; first compound 0.08 µM) | relative viability (AZD6482 + Dasatinib; first compound 0.253 µM) | relative viability (AZD6482 + Dasatinib; first compound 0.8 µM) | relative viability (AZD6482 + Dasatinib; first compound 2.53 µM) | relative viability (AZD6482 + Dasatinib; first compound 8 µM)
COR-L23 | 1.05 | 1.08 | 1.15 | 1.08 | 0.848 | 0.849 | 1.1 | 0.92 | 0.635 | 0.688 | 0.768 | 0.519 | 0.636 | 0.338 | 0.374 | 0.47 | 0.292 | 0.326
NCI-H2087 | 1.06 | 0.933 | 1.28 | 0.854 | 1.18 | 0.744 | 1.08 | 0.964 | 0.183 | 0.161 | 0.213 |  | 0.16 | 0.722 | 0.822 | 0.951 |  | 0.74
LC-2-ad | 0.363 | 0.447 | 0.444 | 0.397 | 0.853 | 0.992 | 1.01 | 0.898 | 0.976 | 0.954 | 1.28 | 0.914 | 1.12 | 0.431 | 0.357 | 0.537 | 0.306 | 0.282
NCI-H1915 | 0.805 | 0.772 | 0.843 | 0.797 | 1.01 | 0.875 | 1.02 | 0.956 | 0.697 | 0.698 | 0.824 | 0.696 | 0.778 | 0.298 | 0.289 | 0.329 | 0.286 | 0.296
NCI-H1793 | 0.49 | 0.489 | 0.492 | 0.457 | 0.75 | 0.742 | 0.855 | 0.664 | 0.151 | 0.164 | 0.165 | 0.134 | 0.167 | 0.387 | 0.34 | 0.351 | 0.249 | 0.358
NCI-H2023 | 1.02 | 1.01 | 1.03 | 0.616 | 0.87 | 0.836 | 0.961 | 0.115 | 0.603 | 0.574 | 0.795 | 0.518 | 0.324 | 0.454 | 0.494 | 0.566 | 0.3 | 0.423
COR-L 105 | 0.925 | 0.749 | 0.938 | 0.486 | 0.395 | 0.424 | 0.322 | 0.278 | 0.75 | 0.867 | 1.04 | 0.46 | 0.663 | 0.287 | 0.318 | 0.325 | 0.262 | 0.273
RERF-LC-KJ | 0.94 | 0.884 | 0.926 | 0.72 | 0.832 | 0.863 | 0.875 | 0.829 | 1.16 | 1.29 | 1.27 | 0.978 | 0.987 | 0.586 | 0.77 | 0.762 | 0.706 | 0.682
LXF-289 | 0.894 | 0.938 | 1.01 | 0.905 | 0.854 | 0.878 | 0.886 | 0.907 | 0.688 | 0.655 | 0.724 | 0.409 | 0.379 | 0.188 | 0.15 | 0.193 | 0.106 | 0.123
PC-14 | 1 | 0.93 | 1.14 | 0.882 | 0.334 | 0.339 | 0.372 | 0.308 | 0.156 | 0.16 | 0.145 |  | 0.142 | 0.245 | 0.281 | 0.239 | 0.197 | 0.16
NCI-H1666 | 0.934 | 1.16 | 1.03 | 0.642 | 0.508 | 0.746 | 0.475 | 0.332 | 1 | 0.942 | 1.06 | 0.876 | 1.21 | 0.801 | 0.845 | 0.906 | 0.737 | 0.946
NCI-H2085 | 1.03 | 1.12 | 1.27 | 0.981 | 0.698 | 0.772 | 0.798 | 0.605 | 0.36 | 0.194 | 0.22 | 0.22 | 0.346 | 0.203 | 0.159 | 0.21 | 0.198 | 0.216
NCI-H1734 | 0.883 | 0.757 | 0.83 | 0.599 | 1.11 | 0.977 | 1.06 | 0.76 | 0.194 | 0.167 | 0.164 | 0.163 | 0.205 | 0.459 | 0.406 | 0.424 | 0.267 | 0.338
NCI-H2126 | 0.847 | 0.777 | 0.804 | 0.81 | 0.74 | 0.742 | 0.796 | 0.732 | 0.933 | 0.836 | 0.841 | 0.373 | 0.68 | 0.542 | 0.578 | 0.568 | 0.284 | 0.317
EMC-BAC-2 | 1.16 | 1.14 | 1.14 | 1.17 | 0.908 | 0.881 | 0.914 | 0.891 | 1.01 | 1.05 | 1.18 | 0.805 | 0.787 | 0.253 | 0.327 | 0.275 | 0.257 | 0.271
NCI-H1993 | 0.919 | 0.97 | 1.04 | 0.991 | 0.684 | 0.907 | 0.834 | 0.751 | 0.509 | 0.711 | 0.737 | 0.571 | 0.616 | 0.514 | 0.543 | 0.442 | 0.348 | 0.542
NCI-H520 | 1.21 | 0.89 | 0.989 | 0.867 | 0.892 | 0.894 | 0.92 | 0.3 | 0.208 | 0.281 | 0.199 | 0.206 | 0.211 | 0.154 | 0.153 | 0.138 | 0.144 | 0.166
